Data taken from patent US9328085B2, “Heterocyclic compounds and expansion agents for hematopoietic stem cells” (NISSAN CHEMICAL INDUSTRIES, LTD., priority 2009, dated 2016).

Key:
SRC = assay: Transplantation of cell culture into immunodeficient (NOD/SCID) mice, SRC assay (Assay Example 4); format: in vivo; conditions: CD34^+ cells cultured 1 week with 3 μg/mL Compound No. 60, SCF and Flt-3, 8 weeks after transplantation, vs uncultured CD34^+ cells, FIG. 2
Experimental: Human cord blood-derived CD34^+ cells were cultured for 1 week in StemSpan SFEM (StemCell Technologies) containing SCF (Peprotech) at a final concentration of 100 ng/mL and Flt-3 (Wako Pure Chemical Industries) at a final concentration of 100 ng/mL in the presence of TPO (Peprotech) at a final concentration of 20 ng/mL or Compound No. 60 at a final concentration of 3 μg/mL in the same manner as in Assay Example 1. The cell culture were transplanted into at least five 7- to 8-week-old NOD/SCID mice by tail vein injection at 4×10^4 cells/mouse in terms of the initial number of CD34^+ cells after a sublethal dose of irradiation (2.5 Gy). Eight weeks after the transplantation, the mice were killed, and the bone marrow cells were collected from both thighbones. Subsequently, the bone marrow cells were stained with a human CD45 antibody (APC, Becton, Dickinson and Company), then washed with PBS(−) containing 2% (v/v) FBS and stained with propidium iodide (Sigma-Aldrich Japan) added to a final concentration of 5 μg/mL. The stained cells were analyzed with a flow cytometry to determined the proportion of human CD45^+ cells in the bone marrow cells. […]

CD34^+CD38^− cells = assay: Expansion of CD34+CD38- cells using human cord blood-derived CD34+ cells (Assay Example 1); format: cell-based; conditions: for Comparison with TPO: 3 μg/mL compound vs TPO 10 ng/mL, CD34^+CD38^− cells; for Expansion efficiency (CD34^+CD38^− cells): 100 ng/mL SCF, 7 days, based on the number of CD34^+CD38^− cells in the absence of compound
Experimental: (§1) Human cord blood-derived CD34^+ cells were purchased from Lonza and plated on a 24-well plate (Corning) (10000 cells/1 mL/well). As the culture medium, StemSpan SFEM (StemCell Technologies) containing 100 ng/mL SCF (Wako Pure Chemical Industries) was used, and one of Compounds No. 1 to 72 dissolved in dimethyl sulfoxide was added in an amount of 0.1% (v/v) to a final concentration of 1 or 3 μg/mL. As a positive control, TPO (PeproTech) was used at a final concentration of 10 ng/mL.
(§2) After the cells were incubated in liquid culture at 37° C. for 7 days in a CO2 incubator (5% CO2), the number of viable cells was counted by trypan blue assay. The number of CD34^+CD38^− cells was calculated as follows. After the incubation, the cells in the liquid culture was stained with a CD34 antibody (APC, Becton, Dickinson and Company) and a CD38 antibody (PE, Becton, Dickinson and Company), then washed with PBS(−) containing 2% (v/v) FBS and stained with propidium iodide (Sigma-Aldrich Japan) added to a final concentration of 5 μg/mL. The stained cells were analyzed with a BD FACSCANTO™ II flow cytometer (Becton, Dickinson and Company) to determined the proportions of CD34^+ cells and CD34^+CD38^− cells, which was multiplied by the number of viable cells to calculate the numbers of CD34^+ cells and CD34^+CD38^− cells.
(§3) The expansion efficiencies in the presence of 1 or 3 μg/mL of compounds based on the number of CD34^+ cells in the absence of them are shown in Tables 3-1 and 3-2 on a scale of A for expansion efficiencies of 6 or greater, B for expansion efficiencies of at least 4 and less than 6, and C for expansion efficiencies of at least 2 and less than 4. The expansion efficiencies in the presence of 1 or 3 μg/mL of compounds based on the number of CD34^+CD38^− cells in the absence of them are shown in Tables 4-1 and 4-2 on a scale of A for expansion efficiencies of 10 or greater, B for expansion efficiencies of at least 5 and less than 10, and C for expansion efficiencies of at least 3 and less than 5. Further, in Table 3, the compounds with an expansion efficiency twice or more greater than that of TPO are marked with O.

HPP-CFC colonies = assay: Expansion of HPP-CFU, blood cell colony forming assay (Assay Example 3); format: cell-based, human; conditions: cells cultured with 3 μg/mL compound, 500 cells/dish, 12 days; None = 6
Experimental: The effects of Compounds No. 60 and No. 61 of the present invention on hematopoietic progenitor cells were measured by blood cell colony forming assay. The liquid cell cultures obtained in the presence of Compounds No. 60 or No. 61 at a final concentration of 3 μg/mL in the same manner as in Assay Example 1 were poured into 3.5-cm Petri dishes with MethoCult GF H4435 culture medium (StemCell Technologies) at 500 cells/dish and incubated in a CO2 incubator (5% CO2, 37° C.) for 12 days. The number of HPP-CFC colonies in each plate was counted under a microscope routinely. The assay was carried out at least in triplicate, and the numbers of HPP-CFC colonies were averaged.

CD34^+ cells = assay: Expansion of CD34+ cells using human cord blood-derived CD34+ cells (Assay Example 1); format: cell-based; conditions: 100 ng/mL SCF, 7 days, based on the number of CD34^+ cells in the absence of compound
Experimental: as §1, §2, §3

Compound | SRC expanding effect (proportion of human CD45^+ cells in bone marrow) (SRC) | Comparison with TPO (CD34^+CD38^− cells) | Expansion efficiency (CD34^+CD38^− cells) (CD34^+CD38^− cells; 3 μg/mL compound) | Number of HPP-CFC colonies (HPP-CFC colonies) | Expansion efficiency (CD34^+ cells) (CD34^+ cells; 3 μg/mL compound) | Expansion efficiency (CD34^+CD38^− cells) (CD34^+CD38^− cells; 1 μg/mL compound) | Expansion efficiency (CD34^+ cells) (CD34^+ cells; 1 μg/mL compound)
CC(=NNC(=O)c1ccc(C(=O)NCc2ccc(C(=O)NCCOCCO)cc2)s1)c1csc(-c2ccc(C(C)(C)C)cc2)c1O [Compound No. 60] | excellent SRC expanding effect | ∘ | A (A for expansion efficiencies of 10 or greater) | 25 | B (B for expansion efficiencies of at least 4 and less than 6) | – | –
CC(=NNC(=O)c1ccc(C(=O)NCc2ccc(C(=O)NCCOCCO)cc2)s1)c1csc(-c2ccc(Br)cc2)c1O [compound 61] | – | ∘ | A (A for expansion efficiencies of 10 or greater) | 14 | A (A for expansion efficiencies of 6 or greater) | – | –
COCCOCCNC(=O)c1ccc(CNC(=O)c2ccc(C(=O)NN=C(C)c3csc(-c4ccc(C(C)(C)C)cc4)c3O)s2)cc1 [compound 32] | – | ∘ | A (A for expansion efficiencies of 10 or greater) | – | A (A for expansion efficiencies of 6 or greater) | – | –
COc1ccc(-c2scc(C(C)=NNC(=O)c3ccc(C(=O)NCc4ccc(CNC(C)=O)cc4)s3)c2O)cc1 [compound 58] | – | – | – | – | – | A (A for expansion efficiencies of 10 or greater) | B (B for expansion efficiencies of at least 4 and less than 6)
CC(=NNC(=O)c1ccc(C(=O)NCc2ccc(C(=O)NCc3ccccn3)cc2)s1)c1csc(-c2ccc(Cl)c(Cl)c2)c1O [compound 4] | – | – | B (B for expansion efficiencies of at least 5 and less than 10) | – | C (C for expansion efficiencies of at least 2 and less than 4) | – | –
CC(=O)NCc1ccc(CNC(=O)c2ccc(C(=O)NN=C(C)c3csc(-c4ccc(Cl)cc4)c3O)s2)cc1 [compound 56] | – | – | – | – | – | A (A for expansion efficiencies of 10 or greater) | A (A for expansion efficiencies of 6 or greater)
CC(=NNC(=O)c1ccc(C(=O)NCc2ccc(C(=O)NCCN(CCO)CCO)cc2)s1)c1csc(-c2ccc(Cl)c(Cl)c2)c1O [compound 22] | – | ∘ | A (A for expansion efficiencies of 10 or greater) | – | A (A for expansion efficiencies of 6 or greater) | – | –
